Series [1] deals with SARS-CoV-2 3CLpro (Severe acute respiratory syndrome coronavirus 2 (2019-nCoV) (SARS-CoV-2), UniProt P0DTD1). In words: biochemical. Type of series: biochemical. The following applies: for IC50: read-out: IC50.
The test system of series [2] is Huh-7, CRFK, or CCL1 cells.
Series [3] addresses MERS-CoV 3CLpro (Middle East respiratory syndrome-related coronavirus (isolate United Kingdom/H123990006/2012) (MERS-CoV) (Betacoronavirus England 1), UniProt K9N7C7). The series is classed as biochemical.
Series [4] has as its system CRFK cells. The following applies: cat.

Sequence of MERS-CoV 3CLpro (K9N7C7 3248-3553 limits assumed): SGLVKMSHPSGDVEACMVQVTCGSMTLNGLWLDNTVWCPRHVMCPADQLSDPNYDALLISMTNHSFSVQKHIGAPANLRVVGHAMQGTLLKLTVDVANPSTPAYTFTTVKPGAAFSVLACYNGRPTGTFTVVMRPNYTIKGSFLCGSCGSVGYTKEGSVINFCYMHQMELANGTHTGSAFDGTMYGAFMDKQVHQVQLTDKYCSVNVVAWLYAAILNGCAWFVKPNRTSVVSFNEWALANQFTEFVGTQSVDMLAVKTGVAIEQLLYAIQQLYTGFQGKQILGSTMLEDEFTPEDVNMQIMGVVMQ

As usually defined, the IC50 is the concentration that inhibits the measured activity by half. For orientation: CC50 means the concentration at which the toxic effect on the cells reaches its halfway point. Low values mean greater toxicity to the cells, high ones lower toxicity to the cells. Regarding `CC(C)C[C@H](NC(=O)O[C@@H]1C[C@H]2CC[C@@H](C1)N2C(=O)OC(C)(C)C)C(=O)N[C@H](C=O)C[C@@H]1CCNC1=O` [Compound 2g, tert-Butyl (1R,3s,5S)-3-((((S)-4-methyl-1-oxo-1-(((S)-1-oxo-3-((S)-2-oxopyrrolidin-3-yl)propan-2-yl)amino)pentan-2-yl)carbamoyl)oxy)-8-azabicyclo[3.2.1]octane-8-carboxylate], in series [1], the IC50 amounted to 1900 ± 140 nM. In series [2], this molecule came in with a CC50 greater than 100 µM.

With `[2H]C([2H])(OC(=O)N[C@@H](CC(C)C)C(=O)N[C@H](C=O)C[C@@H]1CCNC1=O)[C@@H]1C[C@@H]2C=CC[C@@H](C2)C1` [Compound 2d, ((1S,3S,5R)-Bicyclo[3.3.1]non-6-en-3-yl)methyl-d2 ((S)-4-methyl-1-oxo-1-(((S)-1-oxo-3-((S)-2-oxopyrrolidin-3-yl)propan-2-yl)amino)pentan-2-yl)carbamate], the IC50 in series [1] came out at 280 ± 80 nM. In series [2], this molecule had a cytotoxic concentration (CC50) greater than 100 µM.

`CC(C)C[C@H](NC(=O)OCC12CC3CC(CC(C3)C1)C2)C(=O)N[C@H](C=O)C[C@H]1CCNC1=O` [Compound 2k, ((3S,5S,7S)-Adamantan-1-yl)methyl((S)-4-methyl-1-oxo-1-(((S)-1-oxo-3-((S)-2-oxopyrrolidin-3-yl)propan-2-yl)amino)pentan-2-yl)carbamate]: the results for the 50% inhibitory concentration (IC50) in series [1] and in series [3] were 180 ± 40 nM and 55 ± 2 nM, respectively. Moreover, the 50% cytotoxic concentration (CC50) in series [2] is greater than 100 µM.

As to `CC(C)C[C@H](NC(=O)OCC12CC3CC(CC(C3)C1)C2)C(=O)N[C@@H](C[C@H]1CCNC1=O)C(O)S(=O)(=O)O` (stereo partly drawn) [Compound 3k, Sodium (2S)-2-((S)-2-(((((3S,5S,7S)-adamantan-1-yl)methoxy)carbonyl)amino)-4-methylpentanamido)-1-hydroxy-3-((S)-2-oxopyrrolidin-3-yl)propane-1-sulfonate], the IC50 in series [1] is 150 ± 40 nM; in series [3] it was 53 ± 3 nM. Moreover, the cytotoxic concentration (CC50) in series [2] was greater than 100 µM.

As for `[2H]C([2H])(OC(=O)N[C@@H](CC(C)C)C(=O)N[C@@H](C[C@@H]1CCNC1=O)C(O)S(=O)(=O)[O-])[C@@H]1C[C@@H]2C=CC[C@@H](C2)C1.[Na+]` (stereo partly drawn) [Compound 3d, Sodium (2S)-2-((S)-2-(((((1S,3S,5R)-bicyclo[3.3.1]non-6-en-3-yl)methoxy-d2)carbonyl)amino)-4-methylpentanamido)-1-hydroxy-3-((S)-2-oxopyrrolidin-3-yl)propane-1-sulfonate], the IC50 in series [1] came out at 300 ± 30 nM. Moreover, the CC50 in series [2] is greater than 100 µM.

Regarding `CC(C)C[C@H](NC(=O)OCCC12CC3CC(CC(C3)C1)C2)C(=O)N[C@H](C=O)C[C@H]1CCNC1=O` [Compound 2m, 2-((3S,5S,7S)-Adamantan-1-yl)ethyl ((S)-4-methyl-1-oxo-1-(((S)-1-oxo-3-((S)-2-oxopyrrolidin-3-yl)propan-2-yl)amino)pentan-2-yl)carbamate], the IC50 in series [1] was determined as 270 ± 20 nM. Besides, in series [2], the CC50 is greater than 100 µM.

For `CC(C)C[C@H](NC(=O)OCC1CC2CCC1C2)C(=O)N[C@H](C=O)C[C@@H]1CCNC1=O` (stereo partly drawn) [Compound 2f, Bicyclo[2.2.1]heptan-2-ylmethyl ((S)-4-methyl-1-oxo-1-(((S)-1-oxo-3-((S)-2-oxopyrrolidin-3-yl)propan-2-yl)amino)pentan-2-yl)carbamate], the IC50 was 140 ± 20 nM in series [1] and 63 ± 3 nM in series [3]. Besides, the CC50 in series [2] was greater than 100 µM.

For the molecule `CC(C)C[C@H](NC(=O)OCC1CC2C=CC1C2)C(=O)N[C@H](C=O)C[C@@H]1CCNC1=O` (stereo partly drawn) [Compound 2e, Bicyclo[2.2.1]hept-5-en-2-ylmethyl ((S)-4-methyl-1-oxo-1-(((S)-1-oxo-3-((S)-2-oxopyrrolidin-3-yl)propan-2-yl)amino)pentan-2-yl)carbamate], the IC50 in series [1] came to 260 ± 50 nM. Moreover, in series [2], the half-maximal cytotoxic concentration (CC50) is greater than 100 µM.

`CC(C)C[C@H](NC(=O)OCCC12CC3CC(CC(C3)C1)C2)C(=O)N[C@@H](C[C@H]1CCNC1=O)C(O)S(=O)(=O)O` (stereo partly drawn) [Compound 3m, Sodium (2S)-2-((S)-2-(((2-((3S,5S,7S)-adamantan-1-yl)ethoxy)carbonyl)amino)-4-methylpentanamido)-1-hydroxy-3-((S)-2-oxopyrrolidin-3-yl)propane-1-sulfonate]: the half-inhibitory concentration (IC50) in series [1] was determined as 250 ± 40 nM. In series [2], this molecule gave a CC50 greater than 100 µM.

Consider `CC(C)C[C@H](NC(=O)OC1CC2CCC(C1)N2C(=O)OCc1ccccc1)C(=O)N[C@@H](C[C@H]1CCNC1=O)C(O)S(=O)(=O)O` (stereo partly drawn) [Compound 3h, Sodium (2S)-2-((S)-2-(((((1R,3s,5S)-8-((benzyloxy)carbonyl)-8-azabicyclo[3.2.1]octan-3-yl)oxy)carbonyl)amino)-4-methylpentanamido)-1-hydroxy-3-((S)-2-oxopyrrolidin-3-yl)propane-1-sulfonate], for which, in series [1], the half-maximal inhibitory concentration (IC50) stood at 370 ± 30 nM. The same molecule gave a cytotoxic concentration (CC50) in series [2] greater than 100 µM.

As for `CC(C)C[C@H](NC(=O)OC1CC2CCC(C1)N2C(=O)OC(C)(C)C)C(=O)N[C@@H](C[C@H]1CCNC1=O)C(O)S(=O)(=O)O` (stereo partly drawn) [Compound 3g, Sodium (2S)-2-((S)-2-(((((1R,3s,5S)-8-(tert-butoxycarbonyl)-8-azabicyclo[3.2.1]octan-3-yl)oxy)carbonyl)amino)-4-methylpentanamido)-1-hydroxy-3-((S)-2-oxopyrrolidin-3-yl)propane-1-sulfonate], in series [1], the IC50 came out at 1710 ± 160 nM. The 50% cytotoxic concentration (CC50) in series [2] is greater than 100 µM.

For the molecule `CC(C)C[C@H](NC(=O)O[C@@H]1C[C@H]2CC[C@@H](C1)N2C(=O)OCc1ccccc1)C(=O)N[C@H](C=O)C[C@@H]1CCNC1=O` [Compound 2h, Benzyl (1R,3s,5S)-3-((((S)-4-methyl-1-oxo-1-(((S)-1-oxo-3-((S)-2-oxopyrrolidin-3-yl)propan-2-yl)amino)pentan-2-yl)carbamoyl)oxy)-8-azabicyclo[3.2.1]octane-8-carboxylate], the IC50 in series [1] came to 390 ± 20 nM. This molecule registered a half-maximal cytotoxic concentration (CC50) in series [2] greater than 100 µM.

With `CC(C)C[C@H](NC(=O)OC[C@@]12C[C@@H]3C[C@@H](C[C@@](O)(C3)C1)C2)C(=O)N[C@H](C=O)C[C@@H]1CCNC1=O` [Compound 2n, ((1r,3R,5R,7S)-3-Hydroxyadamantan-1-yl)methyl ((S)-4-methyl-1-oxo-1-(((S)-1-oxo-3-((S)-2-oxopyrrolidin-3-yl)propan-2-yl)amino)pentan-2-yl)carbamate], in series [1], the “decrease in potency compared to 2k/3k” value is roughly 5 fold and the half-inhibitory concentration (IC50) worked out at 820 ± 190 nM. This molecule had a CC50 in series [2] greater than 100 µM.

Consider `CC(C)C[C@H](NC(=O)OCC1CC2C=CC1C2)C(=O)N[C@@H](C[C@@H]1CCNC1=O)C(O)S(=O)(=O)O` (stereo partly drawn) [Compound 3e, Sodium (2S)-2-((2S)-2-(((bicyclo[2.2.1]hept-5-en-2-ylmethoxy)carbonyl)amino)-4-methylpentanamido)-1-hydroxy-3-((S)-2-oxopyrrolidin-3-yl)propane-1-sulfonate], for which the 50% inhibitory concentration (IC50) in series [1] is 280 ± 30 nM. The CC50 in series [2] was greater than 100 µM.

For the molecule `CC(C)C[C@H](NC(=O)OCC12CC3CC(CC(O)(C3)C1)C2)C(=O)N[C@@H](C[C@H]1CCNC1=O)C(O)S(=O)(=O)[O-].[Na+]` (stereo partly drawn) [Compound 3n, Sodium (2S)-1-hydroxy-2-((S)-2-(((((1r,3R,5R,7S)-3-hydroxyadamantan-1-yl)methoxy)carbonyl)amino)-4-methylpentanamido)-3-((S)-2-oxopyrrolidin-3-yl)propane-1-sulfonate], in series [1], the “decrease in potency compared to 2k/3k” value is reported as roughly 5 fold and the IC50 came out at 1030 ± 240 nM. The molecule also gave a CC50 in series [2] greater than 100 µM.

In series [4], `CC(C)C[C@H](NC(=O)OC1CC2(CCN(C(=O)OC(C)(C)C)C2)C1)C(=O)N[C@@H](C[C@H]1CCNC1=O)C(O)S(=O)(=O)O` (stereo partly drawn) [Compound 5c, Sodium (2S)-2-((S)-2-((((6-(tert-butoxycarbonyl)-6-azaspiro[3.4]octan-2-yl)oxy)carbonyl)amino)-4-methylpentanamido)-1-hydroxy-3-((R)-2-oxopyrrolidin-3-yl)propane-1-sulfonate] displayed a half-maximal cytotoxic concentration (CC50) greater than 100 µM.

Turning to `[2H]C([2H])(OC(=O)N[C@@H](CC(C)C)C(=O)N[C@H](C=O)C[C@@H]1CCNC1=O)C12CCC(CCCCC)(CC1)CC2` [Compound 2j, (4-Pentylbicyclo[2.2.2]octan-1-yl)methyl-d2 ((S)-4-methyl-1-oxo-1-(((S)-1-oxo-3-((S)-2-oxopyrrolidin-3-yl)propan-2-yl)amino)pentan-2-yl)carbamate], the IC50 in series [1] was determined as 310 ± 30 nM. Also, the midpoint of cytotoxicity in series [2], the CC50, lay at 20 ± 3 µM.

In series [4], `CC(C)C[C@H](NC(=O)OC1CC2(C1)CN(S(C)(=O)=O)C2)C(=O)N[C@H](C=O)C[C@H]1CCNC1=O` [Compound 4b, 2-(Methylsulfonyl)-2-azaspiro[3.3]heptan-6-yl ((S)-4-methyl-1-oxo-1-(((S)-1-oxo-3-((R)-2-oxopyrrolidin-3-yl)propan-2-yl)amino)pentan-2-yl)carbamate] gave a CC50 greater than 100 µM.

The molecule `CC(C)C[C@H](NC(=O)OC1CC2(CCN(C#N)CC2)C1)C(=O)N[C@@H](C[C@H]1CCNC1=O)C(O)S(=O)(=O)O` (stereo partly drawn) [Compound 11c, Sodium (2S)-2-((S)-2-((((7-cyano-7-azaspiro[3.5]nonan-2-yl)oxy)carbonyl)amino)-4-methylpentanamido)-1-hydroxy-3-((R)-2-oxopyrrolidin-3-yl)propane-1-sulfonate] came in with a CC50 in series [4] greater than 100 µM.

For `CC(C)C[C@H](NC(=O)OCC1CC2CCC1C2)C(=O)N[C@@H](C[C@@H]1CCNC1=O)C(O)S(=O)(=O)O` (stereo partly drawn) [Compound 3f, Sodium (2S)-2-((2S)-2-(((bicyclo[2.2.1]heptan-2-ylmethoxy)carbonyl)amino)-4-methylpentanamido)-1-hydroxy-3-((S)-2-oxopyrrolidin-3-yl)propane-1-sulfonate], the 50% inhibitory concentration (IC50) in series [1] is 100 ± 10 nM; in series [3] it was 58 ± 2 nM. The molecule further had a CC50 in series [2] greater than 100 µM.

Source of the values: patent US20240307419A1, “CONFORMATIONALLY-CONSTRAINED INHIBITORS OF 3C OR 3C-LIKE PROTEASES” (priority 2021, published 2024).
